In ChEMBL document CHEMBL5291721, “A preclinical secondary pharmacology resource illuminates target-adverse drug reaction associations of marketed drugs” (Nat Commun, 2023):

Columns and labels:
[1] = target: T1, D(4) dopamine receptor (Homo sapiens, UniProt P21917)
T1 sequence (P21917 whole entry): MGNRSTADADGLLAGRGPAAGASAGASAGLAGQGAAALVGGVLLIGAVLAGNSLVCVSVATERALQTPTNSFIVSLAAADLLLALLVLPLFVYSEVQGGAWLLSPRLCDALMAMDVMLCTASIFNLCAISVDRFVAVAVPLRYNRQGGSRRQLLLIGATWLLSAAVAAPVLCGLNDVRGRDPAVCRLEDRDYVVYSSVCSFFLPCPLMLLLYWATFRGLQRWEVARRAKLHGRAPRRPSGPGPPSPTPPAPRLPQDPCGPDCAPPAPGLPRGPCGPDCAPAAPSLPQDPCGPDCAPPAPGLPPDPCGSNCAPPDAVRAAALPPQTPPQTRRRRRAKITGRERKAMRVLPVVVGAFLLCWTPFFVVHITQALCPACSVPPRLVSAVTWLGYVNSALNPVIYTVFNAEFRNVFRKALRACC

[2] = target: T2, Peroxisome proliferator-activated receptor gamma (Homo sapiens, UniProt P37231); assay type: functional
T2 sequence (P37231 whole entry): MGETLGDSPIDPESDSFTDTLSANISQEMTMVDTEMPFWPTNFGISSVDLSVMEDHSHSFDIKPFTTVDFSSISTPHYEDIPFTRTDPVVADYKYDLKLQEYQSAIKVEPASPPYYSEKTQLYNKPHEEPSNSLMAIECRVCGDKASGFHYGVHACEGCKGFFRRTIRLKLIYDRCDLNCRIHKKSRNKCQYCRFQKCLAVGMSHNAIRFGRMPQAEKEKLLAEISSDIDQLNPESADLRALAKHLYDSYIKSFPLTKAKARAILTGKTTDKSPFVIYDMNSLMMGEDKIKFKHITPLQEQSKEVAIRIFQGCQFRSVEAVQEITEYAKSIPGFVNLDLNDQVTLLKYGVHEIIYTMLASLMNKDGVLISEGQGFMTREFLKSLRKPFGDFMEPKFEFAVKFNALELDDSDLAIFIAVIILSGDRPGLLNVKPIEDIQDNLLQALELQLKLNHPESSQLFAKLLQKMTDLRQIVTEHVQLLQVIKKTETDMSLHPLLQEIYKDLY

[3] = target: Sodium channel protein type 5 subunit alpha (Homo sapiens, UniProt Q14524); assay type: functional, cell-based
[4] = target: Histamine H1 receptor (Homo sapiens, UniProt P35367); assay type: functional, cell-based
[5] = target: Gamma-aminobutyric acid type B receptor subunit 1 (Homo sapiens, UniProt Q9UBS5)
[6] = target: T3, Muscarinic acetylcholine receptor M4 (Homo sapiens, UniProt P08173)
T3 sequence (P08173 whole entry): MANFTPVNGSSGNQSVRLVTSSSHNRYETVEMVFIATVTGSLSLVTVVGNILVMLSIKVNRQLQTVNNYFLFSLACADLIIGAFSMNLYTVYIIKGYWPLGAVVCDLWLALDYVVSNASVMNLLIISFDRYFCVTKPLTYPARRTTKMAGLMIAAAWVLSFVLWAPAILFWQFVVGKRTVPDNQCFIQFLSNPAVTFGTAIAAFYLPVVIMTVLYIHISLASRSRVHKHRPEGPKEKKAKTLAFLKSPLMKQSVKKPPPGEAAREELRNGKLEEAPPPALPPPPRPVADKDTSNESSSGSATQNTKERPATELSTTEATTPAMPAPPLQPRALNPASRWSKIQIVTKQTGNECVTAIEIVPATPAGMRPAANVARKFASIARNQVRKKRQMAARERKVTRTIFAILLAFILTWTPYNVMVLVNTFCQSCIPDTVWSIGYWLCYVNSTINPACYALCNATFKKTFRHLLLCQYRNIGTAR

[7] = target: T4, Substance-K receptor (Homo sapiens, UniProt P21452)
T4 sequence (P21452 whole entry): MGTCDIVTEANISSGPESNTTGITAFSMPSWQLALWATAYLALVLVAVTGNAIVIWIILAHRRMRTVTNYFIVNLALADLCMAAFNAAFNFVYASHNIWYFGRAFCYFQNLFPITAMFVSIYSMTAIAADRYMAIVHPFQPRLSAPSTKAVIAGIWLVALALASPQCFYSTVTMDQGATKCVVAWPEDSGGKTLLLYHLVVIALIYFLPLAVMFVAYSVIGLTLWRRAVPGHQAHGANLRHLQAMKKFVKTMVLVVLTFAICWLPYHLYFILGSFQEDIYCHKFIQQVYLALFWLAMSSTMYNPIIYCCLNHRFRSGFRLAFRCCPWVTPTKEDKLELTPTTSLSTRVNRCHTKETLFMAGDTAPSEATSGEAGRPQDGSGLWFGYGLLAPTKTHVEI

[8] = target: T5, Muscarinic acetylcholine receptor M5 (Homo sapiens, UniProt P08912)
T5 sequence (P08912 whole entry): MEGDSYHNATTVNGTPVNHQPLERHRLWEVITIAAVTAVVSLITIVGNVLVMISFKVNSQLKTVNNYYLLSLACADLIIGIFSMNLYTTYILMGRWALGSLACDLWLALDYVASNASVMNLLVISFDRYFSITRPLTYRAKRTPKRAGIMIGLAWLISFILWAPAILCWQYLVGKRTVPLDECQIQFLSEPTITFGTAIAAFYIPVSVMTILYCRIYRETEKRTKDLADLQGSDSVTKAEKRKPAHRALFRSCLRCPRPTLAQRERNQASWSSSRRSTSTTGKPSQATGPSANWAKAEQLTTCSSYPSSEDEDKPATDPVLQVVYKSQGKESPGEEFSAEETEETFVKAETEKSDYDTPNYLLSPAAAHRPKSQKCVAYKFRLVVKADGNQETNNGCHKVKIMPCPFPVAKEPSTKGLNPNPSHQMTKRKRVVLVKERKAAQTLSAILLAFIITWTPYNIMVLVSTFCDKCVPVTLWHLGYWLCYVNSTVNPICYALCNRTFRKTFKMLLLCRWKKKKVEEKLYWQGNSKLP

[9] = target: Rod cGMP-specific 3',5'-cyclic phosphodiesterase subunit alpha (Homo sapiens, UniProt P16499); assay type: functional
[10] = target: Cannabinoid receptor 1 (Homo sapiens, UniProt P21554); assay type: functional
Also: assay procedure not described here.

Chain of Gamma-aminobutyric acid type B receptor subunit 1 (Q9UBS5 whole entry): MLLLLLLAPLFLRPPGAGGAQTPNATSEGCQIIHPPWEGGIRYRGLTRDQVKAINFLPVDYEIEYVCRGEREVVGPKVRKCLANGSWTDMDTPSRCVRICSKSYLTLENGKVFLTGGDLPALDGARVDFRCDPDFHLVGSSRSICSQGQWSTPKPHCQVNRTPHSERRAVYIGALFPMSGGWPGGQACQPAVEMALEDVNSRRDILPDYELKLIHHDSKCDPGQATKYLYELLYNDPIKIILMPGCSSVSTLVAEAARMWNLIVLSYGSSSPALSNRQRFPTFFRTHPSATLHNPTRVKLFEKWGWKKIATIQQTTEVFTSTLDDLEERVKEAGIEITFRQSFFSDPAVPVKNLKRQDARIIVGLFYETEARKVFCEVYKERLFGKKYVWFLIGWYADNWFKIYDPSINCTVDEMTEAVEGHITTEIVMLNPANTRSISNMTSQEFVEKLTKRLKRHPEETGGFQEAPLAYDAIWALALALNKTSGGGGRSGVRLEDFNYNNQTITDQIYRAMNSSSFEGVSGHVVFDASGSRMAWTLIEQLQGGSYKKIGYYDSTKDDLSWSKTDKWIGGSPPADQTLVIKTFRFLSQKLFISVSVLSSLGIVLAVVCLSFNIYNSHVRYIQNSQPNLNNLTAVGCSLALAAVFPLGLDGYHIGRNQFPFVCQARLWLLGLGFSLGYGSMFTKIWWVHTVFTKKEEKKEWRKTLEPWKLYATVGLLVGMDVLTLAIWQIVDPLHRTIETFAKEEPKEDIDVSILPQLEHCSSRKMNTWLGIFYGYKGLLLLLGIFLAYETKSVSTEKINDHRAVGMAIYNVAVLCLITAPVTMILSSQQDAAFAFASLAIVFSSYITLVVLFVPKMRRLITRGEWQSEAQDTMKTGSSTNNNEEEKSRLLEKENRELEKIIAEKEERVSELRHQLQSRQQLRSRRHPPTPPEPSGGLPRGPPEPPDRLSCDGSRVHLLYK
Chain of Rod cGMP-specific 3',5'-cyclic phosphodiesterase subunit alpha (P16499 whole entry): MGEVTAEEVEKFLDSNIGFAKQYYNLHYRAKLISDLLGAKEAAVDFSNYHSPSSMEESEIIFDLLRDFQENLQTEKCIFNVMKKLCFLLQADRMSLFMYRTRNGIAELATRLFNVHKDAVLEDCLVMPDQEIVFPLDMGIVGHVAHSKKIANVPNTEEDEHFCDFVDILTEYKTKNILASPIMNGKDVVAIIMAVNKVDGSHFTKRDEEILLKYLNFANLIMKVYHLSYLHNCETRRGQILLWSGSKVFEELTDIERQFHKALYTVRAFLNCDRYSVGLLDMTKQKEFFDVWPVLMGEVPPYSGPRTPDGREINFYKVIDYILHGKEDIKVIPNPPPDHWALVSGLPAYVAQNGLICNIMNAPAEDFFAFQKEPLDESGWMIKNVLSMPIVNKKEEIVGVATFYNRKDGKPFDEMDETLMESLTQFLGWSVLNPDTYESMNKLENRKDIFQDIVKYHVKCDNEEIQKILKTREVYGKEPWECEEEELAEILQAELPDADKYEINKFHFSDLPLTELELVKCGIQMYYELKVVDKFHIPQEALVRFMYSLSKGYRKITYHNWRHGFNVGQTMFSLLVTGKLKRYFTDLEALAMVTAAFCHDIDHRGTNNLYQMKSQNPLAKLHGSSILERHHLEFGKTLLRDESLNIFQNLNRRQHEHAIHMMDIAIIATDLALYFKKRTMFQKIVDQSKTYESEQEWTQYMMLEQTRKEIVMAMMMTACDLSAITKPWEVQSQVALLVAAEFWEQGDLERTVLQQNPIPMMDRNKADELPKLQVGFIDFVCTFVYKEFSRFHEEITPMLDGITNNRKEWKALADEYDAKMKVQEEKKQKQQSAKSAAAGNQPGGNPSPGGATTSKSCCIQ
Chain of Cannabinoid receptor 1 (P21554 whole entry): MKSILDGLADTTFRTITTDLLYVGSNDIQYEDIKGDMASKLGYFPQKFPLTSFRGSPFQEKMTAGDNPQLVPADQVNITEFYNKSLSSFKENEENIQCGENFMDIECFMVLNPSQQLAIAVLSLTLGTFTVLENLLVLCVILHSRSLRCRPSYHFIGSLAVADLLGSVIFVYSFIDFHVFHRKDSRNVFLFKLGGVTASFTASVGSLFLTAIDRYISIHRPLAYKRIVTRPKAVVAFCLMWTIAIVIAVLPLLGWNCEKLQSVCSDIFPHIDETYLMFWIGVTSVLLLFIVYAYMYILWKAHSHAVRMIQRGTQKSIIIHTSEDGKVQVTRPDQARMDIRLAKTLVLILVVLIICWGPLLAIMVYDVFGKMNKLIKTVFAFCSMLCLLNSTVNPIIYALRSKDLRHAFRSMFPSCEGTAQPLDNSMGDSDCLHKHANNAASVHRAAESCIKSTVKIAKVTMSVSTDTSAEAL
Chain of Histamine H1 receptor (P35367 whole entry): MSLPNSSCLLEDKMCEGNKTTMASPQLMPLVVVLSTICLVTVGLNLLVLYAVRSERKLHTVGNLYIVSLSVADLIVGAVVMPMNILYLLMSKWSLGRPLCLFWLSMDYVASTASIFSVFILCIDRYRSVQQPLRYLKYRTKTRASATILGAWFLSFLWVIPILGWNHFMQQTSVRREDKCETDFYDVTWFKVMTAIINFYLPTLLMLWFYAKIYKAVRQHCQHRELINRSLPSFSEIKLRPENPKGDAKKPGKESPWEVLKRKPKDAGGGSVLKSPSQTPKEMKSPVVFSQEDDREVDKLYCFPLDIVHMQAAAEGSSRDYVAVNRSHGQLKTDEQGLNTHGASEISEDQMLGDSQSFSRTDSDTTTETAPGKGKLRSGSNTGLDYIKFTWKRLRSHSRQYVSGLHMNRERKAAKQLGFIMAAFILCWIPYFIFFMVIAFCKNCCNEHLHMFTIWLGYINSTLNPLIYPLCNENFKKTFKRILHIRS
Chain of Sodium channel protein type 5 subunit alpha (Q14524 whole entry): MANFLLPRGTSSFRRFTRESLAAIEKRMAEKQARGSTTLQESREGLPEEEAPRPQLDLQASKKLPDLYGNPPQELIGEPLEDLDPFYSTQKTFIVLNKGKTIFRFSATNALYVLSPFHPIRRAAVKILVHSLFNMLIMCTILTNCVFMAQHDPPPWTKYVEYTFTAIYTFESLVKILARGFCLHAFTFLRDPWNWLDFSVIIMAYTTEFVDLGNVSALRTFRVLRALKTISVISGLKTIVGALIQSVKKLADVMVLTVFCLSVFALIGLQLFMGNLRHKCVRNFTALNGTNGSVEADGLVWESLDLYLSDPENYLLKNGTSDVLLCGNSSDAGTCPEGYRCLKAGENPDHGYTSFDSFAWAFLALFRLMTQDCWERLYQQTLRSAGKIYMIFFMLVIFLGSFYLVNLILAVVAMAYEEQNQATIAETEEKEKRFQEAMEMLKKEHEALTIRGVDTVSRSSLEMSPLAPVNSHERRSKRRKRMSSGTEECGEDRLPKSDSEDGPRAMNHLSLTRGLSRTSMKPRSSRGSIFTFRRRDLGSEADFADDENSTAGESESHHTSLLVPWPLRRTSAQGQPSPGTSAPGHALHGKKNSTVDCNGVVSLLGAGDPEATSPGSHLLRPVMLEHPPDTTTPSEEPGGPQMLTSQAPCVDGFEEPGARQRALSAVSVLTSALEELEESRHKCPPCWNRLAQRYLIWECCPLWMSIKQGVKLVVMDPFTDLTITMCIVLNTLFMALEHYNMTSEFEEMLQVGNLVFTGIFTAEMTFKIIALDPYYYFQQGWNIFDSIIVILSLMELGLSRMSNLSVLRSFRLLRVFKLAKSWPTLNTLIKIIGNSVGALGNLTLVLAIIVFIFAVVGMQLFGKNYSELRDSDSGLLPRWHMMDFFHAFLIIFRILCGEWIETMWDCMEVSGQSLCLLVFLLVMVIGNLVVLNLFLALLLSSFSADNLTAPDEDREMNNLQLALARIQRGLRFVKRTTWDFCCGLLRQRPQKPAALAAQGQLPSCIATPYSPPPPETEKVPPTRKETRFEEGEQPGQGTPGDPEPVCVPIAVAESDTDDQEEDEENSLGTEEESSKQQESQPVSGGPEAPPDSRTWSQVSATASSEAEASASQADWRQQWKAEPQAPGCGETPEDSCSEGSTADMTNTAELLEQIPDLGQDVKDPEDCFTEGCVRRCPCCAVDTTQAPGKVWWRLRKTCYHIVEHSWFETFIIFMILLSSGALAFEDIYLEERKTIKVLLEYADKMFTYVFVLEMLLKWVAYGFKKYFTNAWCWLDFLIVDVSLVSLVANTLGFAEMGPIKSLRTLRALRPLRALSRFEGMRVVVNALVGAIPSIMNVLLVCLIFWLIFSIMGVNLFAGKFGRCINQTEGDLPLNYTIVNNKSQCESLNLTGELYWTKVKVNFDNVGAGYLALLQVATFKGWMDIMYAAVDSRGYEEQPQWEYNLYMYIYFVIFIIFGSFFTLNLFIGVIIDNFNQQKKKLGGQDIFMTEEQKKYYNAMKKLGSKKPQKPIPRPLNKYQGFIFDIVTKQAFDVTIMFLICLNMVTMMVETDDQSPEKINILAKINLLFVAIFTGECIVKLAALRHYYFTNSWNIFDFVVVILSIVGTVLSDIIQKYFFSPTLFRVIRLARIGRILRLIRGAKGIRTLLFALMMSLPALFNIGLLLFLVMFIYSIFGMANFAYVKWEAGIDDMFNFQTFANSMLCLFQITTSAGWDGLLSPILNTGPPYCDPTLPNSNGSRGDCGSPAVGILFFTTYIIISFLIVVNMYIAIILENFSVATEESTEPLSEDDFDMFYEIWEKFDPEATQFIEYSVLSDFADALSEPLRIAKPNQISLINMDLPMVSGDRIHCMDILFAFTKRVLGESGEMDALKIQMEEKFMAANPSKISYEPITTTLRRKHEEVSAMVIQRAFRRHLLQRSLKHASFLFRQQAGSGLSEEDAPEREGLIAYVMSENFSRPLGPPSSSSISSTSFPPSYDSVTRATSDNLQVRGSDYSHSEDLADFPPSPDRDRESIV

Structure (SMILES)	AC50 [1] [µM]	AC50 [2] [µM]	AC50 [3] [µM]	AC50 [4] [µM]	other results
O=C1CN=C(c2ccccc2Cl)c2cc([N+](=O)[O-])ccc2N1 [CLONAZEPAM]	> 10				
COc1ccc(-n2nc(C(N)=O)c3c2C(=O)N(c2ccc(N4CCCCC4=O)cc2)CC3)cc1 [APIXABAN]		> 30	> 50		
COc1ccc2c3c1O[C@H]1C(=O)CC[C@H]4[C@@H](C2)N(C)CC[C@]314 [HYDROCODONE]	> 10		> 50		
CN1C(=O)CN=C(c2ccccc2F)c2cc([N+](=O)[O-])ccc21 [FLUNITRAZEPAM]	> 10				
CC1NCCOC1c1ccccc1 (stereo not drawn) [PHENMETRAZINE]				> 30	
COc1ccc(C(Cl)=C(c2ccc(OC)cc2)c2ccc(OC)cc2)cc1 [CHLOROTRIANISENE]				> 30	
CC(=O)OCC1=C(C(=O)O)N2C(=O)[C@@H](NC(=O)Cc3cccs3)[C@H]2SC1 [CEPHALOTHIN]		> 30			
CCC(=O)O[C@H](CC(=O)O)C[N+](C)(C)C [LEVOCARNITINE PROPIONATE]		> 30		> 30	
O=C(O)c1nn(Cc2ccc(Cl)cc2Cl)c2ccccc12 [LONIDAMINE]		> 30		> 30	
CC(C)(N)Cc1ccccc1 [PHENTERMINE]					AC50 [5]: > 10 µM
CN1C2CCCC1CC(NC(=O)c1nn(C)c3ccccc13)C2 (stereo not drawn) [GRANISETRON]	> 10		> 30		AC50 [6]: > 10 µM; AC50 [7]: > 10 µM; AC50 [8]: > 10 µM; AC50 [9]: > 10 µM; AC50 [10]: > 10 µM
CCN(CC)CCCN(c1ccccc1)C1Cc2ccccc2C1 [APRINDINE]		> 30		8	
CCCCCCOC(=O)NC(=N)c1ccc(NCc2nc3cc(C(=O)N(CCC(=O)OCC)c4ccccn4)ccc3n2C)cc1 [DABIGATRAN ETEXILATE]		> 30	3		
CC1=C(C(=O)O)N2C(=O)[C@@H](NC(=O)[C@H](N)C3=CCC=CC3)[C@H]2SC1 [CEPHRADINE]		> 30			
CCOC(=O)C1=C(C)NC(C)=C(C(=O)OC)C1c1cccc(Cl)c1Cl (stereo not drawn) [FELODIPINE]	> 10				
COC(=O)c1ccc2c(c1)NC(=O)/C2=C(\Nc1ccc(N(C)C(=O)CN2CCN(C)CC2)cc1)c1ccccc1 [NINTEDANIB]		> 30	13		
O=C(O[C@H]1C[N+]2(CCCOc3ccccc3)CCC1CC2)C(O)(c1cccs1)c1cccs1 [ACLIDINIUM BROMIDE]	> 10				
NS(=O)(=O)c1ccc(N2CCCCS2(=O)=O)cc1				> 30	
CCCCC[C@H](O)CC[C@@H]1[C@H]2Cc3cccc(OCC(=O)O)c3C[C@H]2C[C@H]1O [TREPROSTINIL]		> 30			
Cc1ccc(-c2ncc(Cl)cc2-c2ccc(S(C)(=O)=O)cc2)cn1 [ETORICOXIB]	> 10			> 30	AC50 [6]: > 10 µM; AC50 [7]: > 10 µM; AC50 [8]: > 10 µM; AC50 [5]: > 10 µM; AC50 [9]: > 10 µM; AC50 [10]: > 10 µM
O=C(O)c1ccc2nc(-c3cc(Cl)cc(Cl)c3)oc2c1			> 30		
Cc1nnc2n1-c1ccc(Cl)cc1C(c1ccccc1)=NC2 [ALPRAZOLAM]	> 10				
CS(=O)(=O)NC(=O)CCC/C=C\C[C@H]1C(=O)C[C@@H](O)[C@@H]1/C=C/[C@@H](O)COc1ccccc1 [SULPROSTONE]		> 30		> 30	
CC(NC(C)(C)C)C(=O)c1cccc(Cl)c1 (stereo not drawn) [BUPROPION]	> 10		> 30		AC50 [6]: > 10 µM; AC50 [7]: > 10 µM; AC50 [8]: > 10 µM; AC50 [5]: > 10 µM; AC50 [10]: > 10 µM
CCCCCCCC(=O)CC[C@@H]1[C@@H](C/C=C\CCCC(=O)O)[C@@H](O)C[C@H]1O [UNOPROSTONE]		> 30	> 50	> 30	
CCN(CC)CC(=O)Nc1c(C)cccc1C [LIDOCAINE]					AC50 [7]: > 10 µM; AC50 [9]: > 10 µM
Cc1cnc(Nc2ccc(OCCN3CCCC3)cc2)nc1Nc1cccc(S(=O)(=O)NC(C)(C)C)c1 [FEDRATINIB]			7.7		
Oc1cc(O)c2c(c1)O[C@H](c1ccc(O)c(O)c1)[C@@H](O)C2 [CIANIDANOL]				> 30	
